Test results reported in PubChem BioAssay AID1845217 (Molecular Pharmacology Branch, DTP, NCI, 2023).

System: VA-ES-BJ tumor spheroid viability
Assay: Anticancer human tumor VA-ES-BJ cell line growth inhibition;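 note: spheroids exposed to compounds for seven days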;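 for viability, T/C: percent of DMSO vehicle control viability so 100% = untreated growth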
Conditions: spheroids with HUVEC and MSC; for IC50: curve of first compound; for viability, T/C: stronger effect = lower value
Text: Multicellular complex tumor spheroid response to DNA repair inhibitors in combination with DNA-damaging drugs
This study explores the anticancer activities of DNA-damaging drugs and inhibitors of DNA damage repair, both as single agents and in combinations. Complex tumor spheroids comprised of malignant cells, endothelial cells and mesenchymal stem cells served as an in vitro model for human solid tumors. This model system incorporates physiologically relevant features and patient-derived or established malignant cell lines with clinically relevant genetic alterations from many tumor types. Twenty-six patient-derived or established malignant cell lines were evaluated representing sarcoma, melanoma, small cell lung cancer (SCLC), non-small cell lung cancer (NSCLC), as well as bladder, ovarian and pancreatic cancers. The concentration ranges selected for each drug and investigational agent were based upon clinically achievable concentrations if the clinical Cmax of the agent was known.
Compounds. The drugs and compounds olaparib (NSC753686), talazoparib (NSC767125), berzosertib (NSC777718), elimusertib (NSC800525), nedisertib (NSC802822), VX-984 (NSC792969), AZD-1390 (NSC803789), temozolomide (NSC362856), topotecan (NSC609699), trabectedin (NSC813783), staurosporine (NSC755774), and gemcitabine (NSC613327) were obtained from the National Cancer Institute (NCI) Developmental Therapeutics Program Chemical Repository. The FDA-approved anticancer drug set is available from the Developmental Therapeutics Program at https://dtp.cancer.gov/organization/dscb/obtaining/available_plates.htm. […] The stock solutions were prepared in dimethyl sulfoxide (DMSO, Sigma-Aldrich, St. Louis, MO, cat. D2650) at 400-fold the tested concentration and stored at -70 degrees C. Prior to their use, the stock solutions were diluted in fresh medium and the final DMSO concentration in the assay was 0.25% (v/v). All drugs and investigational agents were tested over a range starting from a high concentration at or near the clinical Cmax and decreasing in half-log increments. If the clinical Cmax for an agent had not been determined, the highest concentration tested was 10 microM.
Cell Lines. The patient-derived cancer cell (PDC) lines: 156681-154-R-J1-PDC, 283228-195-R-J1-PDC, 287954-098-R-J1-PDC, 292921-168-R-J2-PDC, 349418-098-R-PDC, 425362-245-T-J1-PDC, 556581-035-R-J1-PDC, and BL0293-F563-PDC were received from the NCI Patient-Derived Models Repository (PDMR, https://pdmr.cancer.gov). The established cell lines HS-SY-2 (RRID:CVCL_8719), MPNST, and SYO-1 (RRID:CVCL_7146) were obtained from the Sloan Kettering Institute. The alveolar soft parts sarcoma cell line ASPS-1 (RRID:CVCL_S738) was established at the NCI and grown from internal seed stocks. The following established cell lines were purchased from the American Type Culture Collection (ATCC, Manassas, VA): G-401 (ATCC, cat. CRL-1441, RRID:CVCL_0270), SW982 (ATCC, cat. HTB-93, RRID:CVCL_1734), VA-ES-BJ (ATCC, cat. CRL-2138, RRID:CVCL_1785), NCI-H719 (ATCC, cat. CRL-5837, RRID:CVCL_1582), NCI-H196 (ATCC, cat. CRL-5823, RRID:CVCL_1509), NCI-H841 (ATCC, cat. CRL-5845, RRID:CVCL_1595), NCI-H1618 (ATCC, cat. CRL-5879, RRID:CVCL_1480), NCI-H1876 (ATCC, cat. CRL-5902, RRID:CVCL_1503), DMS 114 (ATCC, cat. CRL-2066; RRID:CVCL_1174), NCI-H211 (ATCC, cat. CRL-5824; RRID:CVCL_1529), and SW 1271 (ATCC, cat. CRL-2177, RRID:CVCL_1716). The small cell lung cancer cell line COR-L88 was purchased from Sigma-Aldrich (cat. 92031917-1VL, RRID:CVCL_1141). The non-small cell lung cancer cell lines NCI-H226 (RRID:CVCL_1544) and NCI-H322M (RRID:CVCL_1557) were established at the NCI and grown from internal seed stocks. Pooled donor human umbilical vein endothelial cells (HUVEC, Lonza, cat. CC-2519) and human mesenchymal stem cells (hMSC, Lonza, cat. PT-2501) were purchased from Lonza (Walkersville, MD).
Cell Culture. All cells were maintained in an incubator at 37 degrees C and 5% CO2 with 95% humidity. […]

[1] = second compound 0.003 µM, first compound 0.00949 µM
[2] = second compound 0.003 µM, first compound 0.03 µM
[3] = second compound 0.003 µM, first compound 0.0949 µM
[4] = second compound 0.003 µM, first compound 0.3 µM
[5] = second compound 0.003 µM, first compound 0.949 µM
[6] = second compound 0.003 µM, first compound 3 µM
[7] = second compound 0.00949 µM, first compound 0.00949 µM
[8] = second compound 0.00949 µM, first compound 0.03 µM
[9] = second compound 0.00949 µM, first compound 0.0949 µM
[10] = second compound 0.00949 µM, first compound 0.3 µM
[11] = second compound 0.00949 µM, first compound 0.949 µM
[12] = second compound 0.00949 µM, first compound 3 µM
[13] = second compound 0.03 µM, first compound 0.00949 µM
[14] = second compound 0.03 µM, first compound 0.03 µM
[15] = second compound 0.03 µM, first compound 0.0949 µM
[16] = second compound 0.03 µM, first compound 0.3 µM
[17] = second compound 0.03 µM, first compound 0.949 µM
[18] = second compound 0.03 µM, first compound 3 µM
[19] = second compound 0.0949 µM, first compound 0.00949 µM
[20] = second compound 0.0949 µM, first compound 0.03 µM
[21] = second compound 0.0949 µM, first compound 0.0949 µM
[22] = second compound 0.0949 µM, first compound 0.3 µM
[23] = second compound 0.0949 µM, first compound 0.949 µM
[24] = second compound 0.0949 µM, first compound 3 µM
[25] = second compound 0.3 µM, first compound 0.00949 µM
[26] = second compound 0.3 µM, first compound 0.03 µM
[27] = second compound 0.3 µM, first compound 0.0949 µM
[28] = second compound 0.3 µM, first compound 0.3 µM
[29] = second compound 0.3 µM, first compound 0.949 µM
[30] = second compound 0.3 µM, first compound 3 µM

| SMILES | IC50 (second compound 0.003 µM) | IC50 (second compound 0.00949 µM) | IC50 (second compound 0.03 µM) | IC50 (second compound 0.0949 µM) | IC50 (second compound 0.3 µM) | viability, T/C [3] | viability, T/C [4] | viability, T/C [5] | viability, T/C [6] | viability, T/C [9] | viability, T/C [10] | viability, T/C [11] | viability, T/C [12] | viability, T/C [15] | viability, T/C [16] | viability, T/C [17] | viability, T/C [18] | viability, T/C [21] | viability, T/C [22] | viability, T/C [23] | other results |
| --- | --- | --- | --- | --- | --- | --- | --- | --- | --- | --- | --- | --- | --- | --- | --- | --- | --- | --- | --- | --- | --- |
| CNCc1ccc(-c2cc(-c3nc(-c4ccc(S(=O)(=O)C(C)C)cc4)cnc3N)on2)cc1 + CC[C@@]1(O)C(=O)OCc2c1cc1n(c2=O)Cc2cc3c(CN(C)C)c(O)ccc3nc2-1 | 258 nM | 139 nM | < 9.49 nM | < 9.49 nM | < 9.49 nM | 71.7% | 49.4% | 15.1% | 6.06% | 59% | 30.7% | 12.4% | 4.37% | 38.1% | 27.9% | 9.05% | 3.26% | 13.8% | 10.3% | 5.27% | viability, T/C [1]: 90.9%; viability, T/C [2]: 83%; viability, T/C [7]: 86.5%; viability, T/C [8]: 81.1%; viability, T/C [13]: 42.3%; viability, T/C [14]: 42.3%; viability, T/C [19]: 8.5%; viability, T/C [20]: 10%; viability, T/C [24]: 2.78%; viability, T/C [25]: 4.36%; viability, T/C [26]: 5.51%; viability, T/C [27]: 5.44%; viability, T/C [28]: 4.99%; viability, T/C [29]: 4.31%; viability, T/C [30]: 3.27% |
| Cn1ncnc1[C@H]1c2n[nH]c(=O)c3cc(F)cc(c23)N[C@@H]1c1ccc(F)cc1 + CC[C@@]1(O)C(=O)OCc2c1cc1n(c2=O)Cc2cc3c(CN(C)C)c(O)ccc3nc2-1 | 150 nM | < 9.49 nM | < 9.49 nM | < 9.49 nM | < 9.49 nM | 57.9% | 44.7% | 22.9% | 5.42% | 28.4% | 21% | 10.6% | 6.84% | 7.12% | 6.39% | 4.2% | 3.72% | 8.32% | 8.9% | 4.82% | viability, T/C [1]: 70.4%; viability, T/C [2]: 54.7%; viability, T/C [7]: 43.9%; viability, T/C [8]: 33.5%; viability, T/C [13]: 9.86%; viability, T/C [14]: 8.29%; viability, T/C [19]: 7.58%; viability, T/C [20]: 7.39%; viability, T/C [24]: 3.16%; viability, T/C [25]: 9.11%; viability, T/C [26]: 9.07%; viability, T/C [27]: 8.75%; viability, T/C [28]: 9.02%; viability, T/C [29]: 8.91%; viability, T/C [30]: 7.66% |
| O=C(c1cc(Cc2n[nH]c(=O)c3ccccc23)ccc1F)N1CCN(C(=O)C2CC2)CC1 + CC[C@@]1(O)C(=O)OCc2c1cc1n(c2=O)Cc2cc3c(CN(C)C)c(O)ccc3nc2-1 | 12000 nM | 2080 nM | < 94.9 nM | < 94.9 nM | < 94.9 nM | 79.5% | 86.5% | 84.7% | 72.9% | 54.4% | 62% | 56.3% | 46% | 11.3% | 11.9% | 11.7% | 8.85% | 6.59% | 7.45% | 7.51% | viability, T/C (second compound 0.003 µM, first compound 9.49 µM): 54.3%; viability, T/C (second compound 0.003 µM, first compound 30 µM): 35.1%; viability, T/C (second compound 0.00949 µM, first compound 9.49 µM): 30.9%; viability, T/C (second compound 0.00949 µM, first compound 30 µM): 13.7%; viability, T/C (second compound 0.03 µM, first compound 9.49 µM): 4.72%; viability, T/C (second compound 0.03 µM, first compound 30 µM): 3.5%; viability, T/C [24]: 7.62%; viability, T/C (second compound 0.0949 µM, first compound 9.49 µM): 6.91%; viability, T/C (second compound 0.0949 µM, first compound 30 µM): 2.51%; viability, T/C [27]: 7.75%; viability, T/C [28]: 8%; viability, T/C [29]: 8.29%; viability, T/C [30]: 8.19%; viability, T/C (second compound 0.3 µM, first compound 9.49 µM): 7.94%; viability, T/C (second compound 0.3 µM, first compound 30 µM): 4.56% |
